In patent US12643910B2, “Substituted pyrazolo[3,4-b]pyridines as ectonucleotide pyrophosphatase/phosphodiesterase 1 (ENPP1) modulators” (SANFORD BURNHAM PREBYS MEDICAL DISCOVERY INSTITUTE, priority 2019, dated 2026):

Key:
human ENPP1 = target: T1, human ENPP1 (Homo sapiens, UniProt P22413); assay: ENPP1 assay with ATP substrate (Transcreener AMP2/GMP2 TR-FRET); format: biochemical; conditions: 1 hour at room temperature
T1 construct: made in house
T1 sequence (P22413 1-925): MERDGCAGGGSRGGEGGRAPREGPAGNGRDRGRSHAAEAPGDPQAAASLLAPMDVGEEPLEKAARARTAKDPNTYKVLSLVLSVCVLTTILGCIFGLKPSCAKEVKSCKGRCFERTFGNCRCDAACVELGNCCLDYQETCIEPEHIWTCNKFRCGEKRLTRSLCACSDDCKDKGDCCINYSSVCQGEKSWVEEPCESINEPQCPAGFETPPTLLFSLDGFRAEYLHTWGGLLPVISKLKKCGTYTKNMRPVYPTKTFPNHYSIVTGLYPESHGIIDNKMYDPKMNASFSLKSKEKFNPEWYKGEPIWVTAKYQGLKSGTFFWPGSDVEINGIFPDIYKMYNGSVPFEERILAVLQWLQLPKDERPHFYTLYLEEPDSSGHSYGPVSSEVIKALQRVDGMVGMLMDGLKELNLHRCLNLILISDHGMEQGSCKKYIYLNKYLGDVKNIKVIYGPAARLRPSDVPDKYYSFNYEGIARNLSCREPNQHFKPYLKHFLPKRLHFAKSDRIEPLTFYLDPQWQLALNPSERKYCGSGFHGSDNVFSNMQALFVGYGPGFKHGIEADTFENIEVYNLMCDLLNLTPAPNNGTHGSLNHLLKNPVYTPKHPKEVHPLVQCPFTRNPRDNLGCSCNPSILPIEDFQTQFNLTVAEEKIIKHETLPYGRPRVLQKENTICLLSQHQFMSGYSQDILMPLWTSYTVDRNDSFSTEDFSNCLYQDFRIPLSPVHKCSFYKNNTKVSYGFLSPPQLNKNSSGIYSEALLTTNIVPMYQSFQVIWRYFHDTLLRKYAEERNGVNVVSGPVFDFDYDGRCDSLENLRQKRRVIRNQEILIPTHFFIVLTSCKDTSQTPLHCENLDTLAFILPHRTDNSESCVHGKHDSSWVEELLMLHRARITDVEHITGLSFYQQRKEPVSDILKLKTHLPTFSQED
Excerpt: Example B1: ENPP1 Assay with ATP Substrate
Ectonucleotide pyrophosphatase/phosphodiesterase 1 (ENPP1) hydrolyzes ATP, breaking it down into 5′-AMP and pyrophosphate. The 5′-AMP formed from the reaction is detected by Transcreener® AMP2/GMP2 TR-FRET Assay (Bellbrook), containing AMP-tracer (HiLyte 647) and anti-AMP Terbium (Tb) donor. 5′-AMP generated in the reaction competes with AMP-tracer for binding with Anti-AMP Tb donor, and decreases TR-FRET signal.
Different concentrations of ENPP1 inhibitors are added to dry assay plate, followed by 2 μl 300 nM ATP. The reaction is initiated with the addition of 2 μl 8.5 μM human ENPP1 (generated by SBP Protein group). The assay reaction mixture contains a buffer of 50 mM Tris, pH 7.5, 1 mM TCEP, 2 mM MgCl2, 0.005% Tween 20, and 1% DMSO. The reaction is stopped after 1 hour at room temperature by adding 2 μL of 2 nM AMP-tracer and 2 μl of 2 nM Anti-AMP Tb donor in the 50 mM Tris, pH 7.5, buffer containing 20 mM EDTA and 0.1% Prionex. After 2 hour additional incubation at room temperature, the generated signal is measured using BMG Lab PHERASTAR instrument. 100% activity control samples (containing enzyme, substrate, buffer: MAX) and no enzyme control samples (containing substrate and buffer: MIN) are utilized to calculate percent inhibition (%) for each compound concentration well (COMPOUND) as follows.
The IC50 values are determined by fitting the inhibition curves with 2-parameter variable slope model in Graphpad Prism software using percent inhibition vs compound concentration data: […]

ENPP3 = target: T2, ENPP3 (Homo sapiens, UniProt O14638); assay: ENPP3 Km ATP assay; format: biochemical; conditions: ATP at Km
T2 sequence (O14638 1-875): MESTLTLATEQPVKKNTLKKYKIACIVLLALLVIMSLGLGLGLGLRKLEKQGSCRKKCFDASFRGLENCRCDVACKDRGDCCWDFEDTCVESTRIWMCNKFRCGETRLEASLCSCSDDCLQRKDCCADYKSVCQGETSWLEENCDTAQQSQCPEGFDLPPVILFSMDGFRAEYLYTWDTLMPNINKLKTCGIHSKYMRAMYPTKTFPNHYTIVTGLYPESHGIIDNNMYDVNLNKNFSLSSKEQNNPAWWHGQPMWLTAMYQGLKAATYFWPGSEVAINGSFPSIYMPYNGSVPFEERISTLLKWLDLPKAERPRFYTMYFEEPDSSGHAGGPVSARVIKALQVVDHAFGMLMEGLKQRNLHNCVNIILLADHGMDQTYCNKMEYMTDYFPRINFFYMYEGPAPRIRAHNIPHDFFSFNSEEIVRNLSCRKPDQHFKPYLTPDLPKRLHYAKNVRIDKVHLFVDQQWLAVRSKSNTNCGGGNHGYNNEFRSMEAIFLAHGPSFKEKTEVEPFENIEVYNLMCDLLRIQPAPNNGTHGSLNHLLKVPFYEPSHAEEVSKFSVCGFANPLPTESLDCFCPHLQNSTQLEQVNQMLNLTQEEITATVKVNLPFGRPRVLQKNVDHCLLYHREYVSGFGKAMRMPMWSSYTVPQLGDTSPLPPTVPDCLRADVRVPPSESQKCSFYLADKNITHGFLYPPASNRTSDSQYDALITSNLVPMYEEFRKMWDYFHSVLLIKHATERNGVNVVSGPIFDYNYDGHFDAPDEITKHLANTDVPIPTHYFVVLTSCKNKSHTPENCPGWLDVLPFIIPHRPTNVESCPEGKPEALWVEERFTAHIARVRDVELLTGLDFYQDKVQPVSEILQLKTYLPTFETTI

Structure (SMILES)	IC50 (human ENPP1) [µM]	IC50 (ENPP3) [µM]
Cc1nc(NCc2ccc(S(N)(=O)=O)cc2)c2c(Br)nn(C)c2n1 [Example 2.89, 4-((3-Bromo-1,6-dimethyl-1H-pyrazolo[3,4-d]pyrimidin-4-yl)aminomethyl)-benzenesulfonamide]	< 0.1	< 0.1
Cn1ncc2c(NCc3ccc(S(N)(=O)=O)cc3Cl)ccnc21 [Example 2.61, 3-Chloro-4-(((1-methyl-1H-pyrazolo[3,4-b]pyridin-4-yl)amino)methyl)benzenesulfonamide]	0.1 to 1	0.1 to 1
Cc1noc2ncnc(N3CCC(NCCCc4ccc(F)cc4)CC3)c12 [Example 2.57, N-(3-(4-Fluorophenyl)propyl)-1-(3-methylisoxazolo[5,4-d]pyrimidin-4-yl)piperidin-4-amine]	> 20	> 20
Cc1csc2c(N3CCC(NCCCc4ccc(C#N)cc4)CC3)ncnc12 [Example 3.6, 4-(3-((1-(7-Methylthieno[3,2-d]pyrimidin-4-yl)piperidin-4-yl)amino)propyl)benzonitrile]	0.1 to 1	> 20
Cn1ncc2c(NCc3ccc(S(N)(=O)=O)cn3)ncnc21 [Example 2.53, 6-(((1-Methyl-1H-pyrazolo[3,4-d]pyrimidin-4-yl)amino)methyl)pyridine-3-sulfonamide]	0.1 to 1	> 20
Cn1ncc2c(N3CCC(NCCCc4ccncc4)CC3)ncnc21 [Example 2.5, 1-(1-Methyl-1H-pyrazolo[3,4-d]pyrimidin-4-yl)-N-(3-(pyridin-4-yl)propyl)piperidin-4-amine]	> 20	> 20
Cc1csc2c(N3CCC(NCCCc4ccncc4)CC3)ncnc12 [Example 3.1, 1-(7-Methylthieno[3,2-d]pyrimidin-4-yl)-N-(3-(pyridin-4-yl)propyl)piperidin-4-amine]	0.1 to 1	> 20
NS(=O)(=O)c1ccc(CNc2nc(-c3ccccc3)nc3scc(-c4ccccc4)c23)s1 [Example 1.27, 5-(((2,5-Diphenylthieno[2,3-d]pyrimidin-4-yl)amino)methyl)thiophene-2-sulfonamide]	1 to 20	> 20
Cc1nsc2c(=O)n(Cc3ccc(S(N)(=O)=O)cc3)cnc12 [Example 3.60, 4-((3-Methyl-7-oxoisothiazolo[4,5-d]pyrimidin-6(7H)-yl)methyl)benzenesulfonamide]	1 to 20	1 to 20
NS(=O)(=O)c1ccc(CNc2nc(NCCO)nc3scc(-c4ccccc4)c23)cc1 [Example 1.50, 4-((2-(2-Hydroxyethylamino)-5-phenylthieno[2,3-d]pyrimidin-4-yl)aminomethyl)-benzenesulfonamide]	< 0.1	< 0.1
Cn1ncc2c(NCc3ccc(S(N)(=O)=O)cc3)nc(NC3CCCCC3)nc21 [Example 2.30, 4-(((6-(Cyclohexylamino)-1-methyl-1H-pyrazolo[3,4-d]pyrimidin-4-yl)amino)methyl)-benzenesulfonamide]	1 to 20	1 to 20
CCNc1nc(NCc2ccc(S(N)(=O)=O)cn2)c2cnn(C)c2n1 [Example 2.139, 6-(((6-(Ethylamino)-1-methyl-1H-pyrazolo[3,4-d]pyrimidin-4-yl)amino)methyl)pyridine-3-sulfonamide]	1 to 20	1 to 20
Cn1ncc2c(NCc3ccc(S(N)(=O)=O)cc3)cnnc21 [Example 2.55, 4-(((1-Methyl-1H-pyrazolo[3,4-c]pyridazin-4-yl)amino)methyl)benzenesulfonamide]	0.1 to 1	1 to 20
Cn1ncc2c(NCc3ccc(S(N)(=O)=O)cc3)nc(NC3CC3)nc21 [Example 2.35, 4-(((6-(Cyclopropylamino)-1-methyl-1H-pyrazolo[3,4-d]pyrimidin-4-yl)amino)methyl)-benzenesulfonamide]	0.1 to 1	0.1 to 1
Cn1ncc2c(NCc3ccc(S(N)(=O)=O)cn3)ccnc21 [Example 2.71, 6-(((1-Methyl-1H-pyrazolo[3,4-b]pyridin-4-yl)amino)methyl)pyridine-3-sulfonamide]	< 0.1	0.1 to 1
Cn1ncc2c(NCc3ccc(S(N)(=O)=O)cc3)nc(C(F)(F)F)nc21 [Example 2.133, 4-((1-Methyl-6-trifluoromethyl-1H-pyrazolo[3,4-d]pyrimidin-4-yl)aminomethyl)-benzenesulfonamide]	1 to 20	1 to 20
CC(C)Nc1cc(NCc2ccc(S(N)(=O)=O)cc2)c2cnn(C)c2n1 [Example 2.74, 4-(((6-(Isopropylamino)-1-methyl-1H-pyrazolo[3,4-b]pyridin-4-yl)amino)methyl)benzenesulfonamide]	1 to 20	1 to 20
CCn1ncc2c(NCc3ccc(S(N)(=O)=O)cc3)nc(Cl)nc21 [Example 2.83, 4-((6-Chloro-1-ethyl-1H-pyrazolo[3,4-d]pyrimidin-4-yl)aminomethyl)benzenesulfonamide]	< 0.1	1 to 20
Fc1cccc(CNc2nc(-c3ccccn3)nc3scc(-c4ccccc4)c23)c1 [Example 1.9, (3-Fluoro-benzyl)-(5-phenyl-2-pyridin-2-yl-thieno[2,3-d]pyrimidin-4-yl)-amine]	> 20	> 20
COc1cc(CNc2ccnc3c2cnn3C)ccc1S(N)(=O)=O [Example 2.65, 2-Methoxy-4-(((1-methyl-1H-pyrazolo[3,4-b]pyridin-4-yl)amino)methyl)-benzenesulfonamide]	1 to 20	> 20
Nc1nc(NCc2ccc(S(N)(=O)=O)cc2)c2c(-c3ccccc3)csc2n1 [Example 1.57, 4-((2-Amino-5-phenylthieno[2,3-d]pyrimidin-4-yl)aminomethyl)benzenesulfonamide]	< 0.1	0.1 to 1
Cn1ncc2c(NCc3ccc(S(N)(=O)=O)cc3)ncnc21 [Example 2.25, 4-(((1-Methyl-1H-pyrazolo[3,4-d]pyrimidin-4-yl)amino)methyl)benzenesulfonamide]	< 0.1	1 to 20
COCCNc1nc(NCc2ccc(S(N)(=O)=O)cc2)c2c(-c3ccccc3)csc2n1 [Example 1.54, 4-((2-(2-Methoxyethyl)amino-5-phenylthieno[2,3-d]pyrimidin-4-yl)aminomethyl)-benzenesulfonamide]	< 0.1	< 0.1
